For series [1], the target named is T1, human Adrenergic α1D receptor (Homo sapiens, UniProt P25100).
T1 construct: expressed in transfected cells; host or cells: CHO-K1 or HEK-293, coexpressing mitochondrial apoaequorin
Nature of the series: Aequorin functional assay (agonist/antagonist). Type of series: cell-based. How it is done: (§1) Functional profiling of agonist and antagonist activities of 8′-OH DHE on human Adrenergic α1D, Dopamine D2L, and Serotonin 5-HT1B, 5-HT1D, 5-HT1F, 5-HT3, 5-HT4e and 5-HT5A receptors (compared against the parent (DHE) molecule) was carried out as follows.
(§2) The SPA 35S-GTPγS tests were conducted with Euroscreen membrane preparations […]. The HTRF assays were conducted with recombinant cell lines. The receptor accession numbers, cellular background and reference compounds are as reported below in Table 10.
(§3) (1) DHE and 8′-OH DHE were tested for agonist and antagonist activity at the human Adrenergic α1D, Serotonin 5-HT3 and Serotonin 5-HT5A receptors using aequorin assay (in triplicate) at the following nanomolar concentrations:
(§4) (5) DHE was tested for agonist and antagonist activity at the human Adrenergic α1D, Serotonin 5-HT3 and Serotonin 5-HT5A receptors using aequorin assay (in triplicate), and at the human Dopamine D2L, Serotonin 5-HT1F and Serotonin 5-HT4E receptors using cAMP HTRF assay (in triplicate) at the following nanomolar concentrations:
(§5) (6) 8′-OH DHE was tested for agonist and antagonist activity at the human Adrenergic α1D, Serotonin 5-HT3 and Serotonin 5-HT5A receptors using aequorin assay (in triplicate), at the human Dopamine D2L, Serotonin 5-HT1F and Serotonin 5-HT4E receptors using cAMP HTRF assay (in triplicate), and at the human Serotonin 5-HT1B and Serotonin 5-HT1D receptors using GTPγS assay (in triplicate) at the following nanomolar concentrations:
(§6) CHO-K1 or HEK-293 cells coexpressing mitochondrial apoaequorin and recombinant human […], or recombinant human Serotonin 5-HT3 receptor, or recombinant human Serotonin 5-HT5A receptor grown to mid-log phase in culture media without antibiotics were detached with PBS-EDTA, centrifuged and resuspended in assay buffer (DMEMHAM's F12 with HEPES, without phenol red+0.1% BSA protease free) at a concentration of 1×10^6 cells/mL. Cells were incubated at RT for at least 4 hours with coelenterazine h. The reference agonist was tested to evaluate performance of the assay on each day of the test and to determine EC50. For agonist testing, 50 μL of cell suspension was mixed with 50 μL of test compound or reference agonist in a 96-well plate. The resulting emission of light was recorded using Hamamatsu Functional Drug Screening System 6000 (FDSS 6000 luminometer). For antagonist testing, 100 μL of the reference agonist at its EC80 was injected on the mix of cells and test compounds, following an incubation of 15 minutes after the first injection. The resulting emission of light was recorded using the FDSS 6000 luminometer. To standardize the emission of recorded light (determination of the ‘100% signal’) across plates and across different experiments, some of the wells contained 100 μM digitonin or a saturating concentration of ATP (20 μM).
(§7) Agonist activity of the test compounds was expressed as a percentage of the activity of the reference agonist at its EC100 concentration. Antagonist activity of the test compounds was expressed as a percentage of the inhibition of the reference agonist activity at its EC80 concentration. Dose-response data from the test compounds were analyzed with XLfit (IDBS) software using nonlinear regression applied to a sigmoidal dose-response model and the following equation: […]

Series [2] addresses T2, human Serotonin 5-HT3 receptor (Homo sapiens, UniProt P46098).
T2 construct: expressed in transfected cells; host or cells: CHO-K1 or HEK-293, coexpressing mitochondrial apoaequorin
Nature of the series: Aequorin functional assay (agonist/antagonist). Type of series: cell-based. How it is done:
as §1, §2, §3, §4, §5, §6, §7

Series [3] addresses T3, human Serotonin 5-HT5A receptor (Homo sapiens, UniProt P47898).
T3 construct: expressed in transfected cells; host or cells: CHO-K1 or HEK-293, coexpressing mitochondrial apoaequorin
Nature of the series: Aequorin functional assay (agonist/antagonist). Type of series: cell-based. How it is done:
as §1, §2, §3, §4, §5, §6, §7

In series [4] the target is T4, human Serotonin 5-HT4e receptor (Homo sapiens, UniProt Q13639).
T4 construct: expressed in transfected cells; host or cells: CHO-K1 (transient)
T4 sequence (Q13639 1-378 isoform Q13639-5): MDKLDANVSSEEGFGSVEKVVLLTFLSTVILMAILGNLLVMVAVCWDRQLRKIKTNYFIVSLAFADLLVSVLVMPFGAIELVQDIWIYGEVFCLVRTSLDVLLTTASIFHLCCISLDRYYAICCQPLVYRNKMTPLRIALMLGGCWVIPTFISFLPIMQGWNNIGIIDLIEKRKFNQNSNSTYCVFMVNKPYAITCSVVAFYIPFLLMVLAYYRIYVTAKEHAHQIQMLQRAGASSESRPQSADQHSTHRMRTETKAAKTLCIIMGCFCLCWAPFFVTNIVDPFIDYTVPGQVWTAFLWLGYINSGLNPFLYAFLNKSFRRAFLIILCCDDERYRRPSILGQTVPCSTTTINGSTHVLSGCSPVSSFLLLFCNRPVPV
In words: cAMP HTRF functional assay (agonist/antagonist). Type of series: cell-based. How it is done:
as §1, §2
(4) DHE and 8′-OH DHE were tested for agonist and antagonist activity at the human Serotonin 5-HT1F and Serotonin 5-HT4E receptors using cAMP HTRF assay (in triplicate) at the following nanomolar concentrations: […]
as §7
On the technique in general: TR-FRET usually uses a lanthanide donor and a delayed reading to cut background.

For series [5] the following is noted: cited from earlier work.

Read-outs that look alike come from different tables or passages of the source. Some results are limits rather than exact numbers.

T2 sequence (P46098 24-478): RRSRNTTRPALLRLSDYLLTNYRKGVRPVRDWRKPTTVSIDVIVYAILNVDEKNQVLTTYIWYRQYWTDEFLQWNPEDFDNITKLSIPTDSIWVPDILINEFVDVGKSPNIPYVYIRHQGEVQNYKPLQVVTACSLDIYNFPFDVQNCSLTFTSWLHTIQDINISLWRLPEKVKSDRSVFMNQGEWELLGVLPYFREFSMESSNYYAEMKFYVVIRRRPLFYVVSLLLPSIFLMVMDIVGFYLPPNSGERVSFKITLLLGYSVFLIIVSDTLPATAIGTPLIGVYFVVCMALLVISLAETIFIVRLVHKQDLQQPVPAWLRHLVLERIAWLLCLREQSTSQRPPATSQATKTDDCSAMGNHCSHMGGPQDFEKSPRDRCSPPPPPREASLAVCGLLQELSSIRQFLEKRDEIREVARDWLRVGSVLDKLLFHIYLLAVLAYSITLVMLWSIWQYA
T3 sequence (P47898 whole entry): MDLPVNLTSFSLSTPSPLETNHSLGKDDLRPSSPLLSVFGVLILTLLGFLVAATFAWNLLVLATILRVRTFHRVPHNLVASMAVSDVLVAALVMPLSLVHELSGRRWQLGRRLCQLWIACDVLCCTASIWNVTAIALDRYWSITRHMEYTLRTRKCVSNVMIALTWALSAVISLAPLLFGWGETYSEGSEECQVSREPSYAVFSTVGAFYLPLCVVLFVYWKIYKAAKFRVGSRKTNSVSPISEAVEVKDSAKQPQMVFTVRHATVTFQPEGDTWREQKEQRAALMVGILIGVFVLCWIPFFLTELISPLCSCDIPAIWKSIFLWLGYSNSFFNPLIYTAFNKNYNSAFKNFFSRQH
T1 sequence (P25100 whole entry): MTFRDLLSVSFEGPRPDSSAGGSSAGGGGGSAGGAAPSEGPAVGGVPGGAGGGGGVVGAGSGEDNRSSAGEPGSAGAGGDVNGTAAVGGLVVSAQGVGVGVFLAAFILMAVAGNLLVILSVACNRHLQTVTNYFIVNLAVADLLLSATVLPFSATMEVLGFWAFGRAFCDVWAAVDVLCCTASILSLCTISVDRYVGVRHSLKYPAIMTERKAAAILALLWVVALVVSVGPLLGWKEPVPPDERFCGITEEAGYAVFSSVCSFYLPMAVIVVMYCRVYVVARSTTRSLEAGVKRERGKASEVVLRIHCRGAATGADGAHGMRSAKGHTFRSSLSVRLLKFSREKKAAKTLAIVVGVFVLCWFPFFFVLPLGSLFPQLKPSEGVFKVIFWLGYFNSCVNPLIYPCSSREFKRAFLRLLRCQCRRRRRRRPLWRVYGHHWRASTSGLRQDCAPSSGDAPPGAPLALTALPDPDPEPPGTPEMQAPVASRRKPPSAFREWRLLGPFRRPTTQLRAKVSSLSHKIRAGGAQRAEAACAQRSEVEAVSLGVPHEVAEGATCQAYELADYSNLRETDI

Turning to `CN1C[C@H](C(=O)N[C@]2(C)O[C@@]3(O)[C@@H]4CCC(O)N4C(=O)[C@H](Cc4ccccc4)N3C2=O)C[C@@H]2c3cccc4[nH]cc(c34)C[C@H]21` (stereo partly shown) [8′-OH DHE, 8′-Hydroxy-Dihydroergotamine], the IC50 was 0.00061 µM in series [1] (Adrenergic α1D, aequorin, vs reference agonist at EC80, read-out: Functional activity (antagonist)); more than 10 µM in series [2] (Serotonin 5-HT3, aequorin, read-out: Functional activity (antagonist)); 0.0733 µM in series [3] (Serotonin 5-HT5A, aequorin, read-out: Functional activity (antagonist)). Also, the EC50 in series [4] (Serotonin 5-HT4e, cAMP HTRF, read-out: Functional activity (agonist)) came out at 0.109 µM. The “metabolite concentration relative to parent DHE” value in series [5] (previous studies) is recorded as 5 to 7 times.
With `CN1C[C@H](C(=O)N[C@]2(C)O[C@@]3(O)[C@@H]4CCCN4C(=O)[C@H](Cc4ccccc4)N3C2=O)C[C@@H]2c3cccc4[nH]cc(c34)C[C@H]21` [DHE, Dihydroergotamine], the IC50 in series [1] is 0.00132 µM; in series [2], 3.85 µM; in series [3] it was 0.0488 µM. Also, in series [4], the EC50 was found to be 0.105 µM. In addition, the serum half-life in series [5] (serum) is 10 to 13 h.

These data come from patent publication US20150306096A1, “8'-HYDROXY-DIHYDROERGOTAMINE COMPOUNDS AND COMPOSITIONS” (MAP Pharmaceuticals, Inc., priority 2012, published 2015).
